Reference: ChEMBL document CHEMBL6078618, “Exploring quinoxaline derivatives: An overview of a new approach to combat antimicrobial resistance” (Eur J Med Chem, 2024)
≈ marks a conversion by molar mass, not a printed value.

Legend:
Rhizoctonia solani = test: Antifungal activity against Rhizoctonia solani; type: functional, organism-based
Escherichia coli [1] = test: Antimicrobial activity against Escherichia coli NCIM 2065 assessed as zone of inhibition incubated for 24 hrs by agar diffusion method; type: functional
Escherichia coli [2] = test: Antibacterial activity against Escherichia coli E38 assessed as reduction in bacterial growth by measuring minimum bactericidal concentration incubated for 16 to 20 hrs by serial dilution method; type: functional; conditions: time 16-20 hrs
Escherichia coli [3] = test: Antibacterial activity against Escherichia coli ATCC 25922 assessed as reduction in bacterial growth by broth microdilution method; type: functional
Bacillus pumilus = test: Antimicrobial activity against Bacillus pumilus; type: functional
Staphylococcus aureus [4] = test: Antibacterial activity against Staphylococcus aureus ATCC 25923 assessed as reduction in bacterial growth incubated for 24 hrs by serial dilution method; type: functional
Candida albicans [5] = test: Antifungal activity against Candida albicans assessed as reduction in microbial growth; type: functional
Fusarium oxysporum = test: Antifungal activity against Fusarium oxysporum; type: functional
MCF7 = test: Anticancer activity against human MCF7 cells assessed as reduction in cell growth; type: functional, cell-based
Micrococcus luteus = test: Antibacterial activity against Micrococcus luteus assessed as reduction in microbial growth; type: functional
Pseudomonas aeruginosa = test: Antibacterial activity against Pseudomonas aeruginosa ATCC 27853 assessed as inhibition of bacterial growth; type: functional
Xanthomonas axonopodis = test: Antimicrobial activity against Xanthomonas axonopodis; type: functional, organism-based
Staphylococcus aureus [6] = test: Antibacterial activity against Staphylococcus aureus; type: functional
Candida albicans [7] = test: Antifungal activity against Candida albicans; type: functional
Nakaseomyces glabratus = test: Antifungal activity against Candida glabrata; type: functional
Candida tropicalis = test: Antifungal activity against Candida tropicalis; type: functional
Pichia kudriavzevii = test: Antifungal activity against Candida krusei; type: functional

**Q.** With `S=c1[nH]nc(NCNc2n[nH]c(=S)s2)s1` as the molecule, how does the EC50 (Rhizoctonia solani) read?
**A.** 295 µg/mL (≈ 1060 µM)

**Q.** Which results are given for `Nc1ccc(Sc2nc3ccccc3nc2Cl)cc1`?
**A.** inhibition zone (IZ) (Escherichia coli [1]): 15 mm; MBC (Escherichia coli [2]): 2.5 µg/mL (≈ 8.69 µM)

**Q.** Which results are given for `Nc1ccc(Sc2nc3ccccc3nc2Sc2ccc(N)cc2)cc1`?
**A.** MIC (Escherichia coli [3]): 2.5 µg/mL (≈ 6.64 µM); MIC (Bacillus pumilus): 2.5 µg/mL (≈ 6.64 µM)

**Q.** With `N#Cc1ccc(COC(=O)c2ccc(Oc3cnc4cc(Cl)ccc4n3)cc2)cc1` as the molecule, how does the EC50 (Rhizoctonia solani) read?
**A.** 12 µg/mL (≈ 28.9 µM)

**Q.** How did the MIC (Escherichia coli [3]) turn out when `O=C(O)c1cccc(Sc2nc3ccccc3nc2Sc2cccc(C(=O)O)c2)c1` was run?
**A.** 2.5 µg/mL (≈ 5.75 µM)

**Q.** Which results are given for `NNC1=NNc2nc3ccc(S(=O)(=O)N4CCOCC4)cc3nc2S1`?
**A.** MIC (Staphylococcus aureus [4]): 1.92 µg/mL (≈ 5.03 µM); MIC (Candida albicans [5]): 3.9 µg/mL; MIC (Fusarium oxysporum): 15.6 µg/mL (≈ 40.9 µM)

**Q.** Which IC50 (MCF7) does the source give for `COc1ccc(OC)c(/C=C/c2nc3ccccc3nc2Nc2ccc(C(=O)O)cc2)c1` here?
**A.** 10 µM

**Q.** Which results are given for `CCNc1nc2ccccc2nc1C(=O)c1cnc(-c2ccccc2)o1`?
**A.** MIC (Micrococcus luteus): 62.5 µg/mL; MIC (Pseudomonas aeruginosa): 31.2 µg/mL (≈ 90.7 µM)

**Q.** What does the source list for `COc1ccc(Sc2nc3ccccc3nc2Sc2ccc(OC)cc2)cc1`?
**A.** MIC (Escherichia coli [3]): 2.5 µg/mL (≈ 6.15 µM); MIC (Bacillus pumilus): 5 µg/mL (≈ 12.3 µM)

**Q.** `O=S(=O)(c1ccc2nc(Cl)c(Cl)nc2c1)N1CCOCC1` was tested. Which MIC (Staphylococcus aureus [4]) did it give?
**A.** 1.92 µg/mL (≈ 5.51 µM)

**Q.** `O=C(/C=C/c1ccccn1)c1ccc(Oc2cnc3ccccc3n2)cc1` was tested. Which EC50 (Xanthomonas axonopodis) did it give?
**A.** 62.3 µM

**Q.** How did the MIC (Escherichia coli [3]) turn out when `O=[N+]([O-])c1ccc(Sc2nc3ccccc3nc2Sc2ccc([N+](=O)[O-])cc2)cc1` was run?
**A.** 2.5 µg/mL (≈ 5.73 µM)

**Q.** Which results are given for `O=C(c1cnc(-c2ccc(Cl)cc2)o1)c1nc2ccccc2nc1N1CCOCC1`?
**A.** MIC (Micrococcus luteus): 62.5 µg/mL; MIC (Pseudomonas aeruginosa): 31.2 µg/mL (≈ 74.3 µM); EC50 (Xanthomonas axonopodis): 44.3 µM

**Q.** For `C/C(=N/Nc1nc2nc3cc(S(=O)(=O)N4CCOCC4)ccc3nc2s1)c1ccc(Br)cc1`, which MIC (Staphylococcus aureus [4]) is on record?
**A.** 1.92 µg/mL (≈ 3.51 µM)

**Q.** For `N#Cc1ccc(/C=C/c2nc3ccccc3nc2Nc2ccc(C(=O)O)cc2)cc1`, which MIC (Staphylococcus aureus [6]) is on record?
**A.** 13.3 µM (≈ 5.22 µg/mL)

**Q.** `CCc1nc2ccc(-c3nnc(SCC(=O)c4ccc([N+](=O)[O-])cc4)n3CC)cc2nc1CC` was tested. Which MIC90 (Candida albicans [7]) did it give?
**A.** 4 µg/mL (≈ 8.39 µM)

**Q.** And the MIC90 (Nakaseomyces glabratus)?
**A.** 2 µg/mL (≈ 4.2 µM)

**Q.** And the MIC90 (Candida tropicalis)?
**A.** 4 µg/mL (≈ 8.39 µM)

**Q.** What about the MIC90 (Pichia kudriavzevii) of the same molecule?
**A.** 2 µg/mL (≈ 4.2 µM)

**Q.** With `O=C(O)c1ccc(Nc2nc3ccccc3nc2/C=C/c2ccc(O)cc2)cc1` as the molecule, how does the IC50 (MCF7) read?
**A.** 7 µM

**Q.** What does the source list for `COc1ccc(Sc2nc3ccccc3nc2Cl)cc1`?
**A.** inhibition zone (IZ) (Escherichia coli [1]): 13 mm; MBC (Escherichia coli [2]): 2.5 µg/mL (≈ 8.26 µM)

**Q.** For `Cc1cc(O)n(C2=NNc3nc4ccc(S(=O)(=O)N5CCOCC5)cc4nc3S2)n1`, which MIC (Staphylococcus aureus [4]) is on record?
**A.** 1.92 µg/mL (≈ 4.29 µM)

**Q.** What about the MIC (Candida albicans [5]) of the same molecule?
**A.** 3.9 µg/mL

**Q.** And the MIC (Fusarium oxysporum)?
**A.** 15.6 µg/mL (≈ 34.9 µM)

**Q.** Which results are given for `CCCNc1nc2ccccc2nc1C(=O)c1cnc(-c2ccc(Cl)cc2)o1`?
**A.** MIC (Micrococcus luteus): 62.5 µg/mL; MIC (Pseudomonas aeruginosa): 31.2 µg/mL (≈ 79.5 µM); EC50 (Xanthomonas axonopodis): 42.4 µM

**Q.** How did the “inhibition zone (IZ)” value (Escherichia coli [1]) turn out when `Cc1cc(C)cc(Sc2nc3ccccc3nc2Cl)c1` was run?
**A.** 11 mm

**Q.** And the MBC (Escherichia coli [2])?
**A.** 2.5 µg/mL (≈ 8.31 µM)

**Q.** For `CNc1nc2ccccc2nc1C(=O)c1cnc(-c2ccccc2)o1`, which MIC (Micrococcus luteus) is on record?
**A.** 62.5 µg/mL

**Q.** And the MIC (Pseudomonas aeruginosa)?
**A.** 31.2 µg/mL (≈ 94.6 µM)

**Q.** With `O=C(c1cnc(-c2ccc(Cl)cc2)o1)c1nc2ccccc2nc1NCc1ccccc1` as the molecule, how does the MIC (Micrococcus luteus) read?
**A.** 62.5 µg/mL

**Q.** And the MIC (Pseudomonas aeruginosa)?
**A.** 31.2 µg/mL (≈ 70.9 µM)

**Q.** And the EC50 (Xanthomonas axonopodis)?
**A.** 6.72 µM

**Q.** How did the MIC (Micrococcus luteus) turn out when `CCCNc1nc2ccccc2nc1C(=O)c1cnc(-c2ccccc2)o1` was run?
**A.** 62.5 µg/mL

**Q.** What about the MIC (Pseudomonas aeruginosa) of the same molecule?
**A.** 31.2 µg/mL (≈ 87.2 µM)

**Q.** With `Cc1nnc2n1Nc1nc3ccc(S(=O)(=O)N4CCOCC4)cc3nc1S2` as the molecule, how does the MIC (Staphylococcus aureus [4]) read?
**A.** 1.92 µg/mL (≈ 4.74 µM)

**Q.** With `N#Cc1ccc(COC(=O)c2ccc(Oc3cnc4ccccc4n3)cc2)cc1` as the molecule, how does the EC50 (Rhizoctonia solani) read?
**A.** 8.54 µg/mL (≈ 22.4 µM)

**Q.** `O=C(OCc1ccc(Cl)cc1Cl)c1ccc(Oc2cnc3cc(Cl)ccc3n2)cc1` was tested. Which EC50 (Rhizoctonia solani) did it give?
**A.** 35.2 µg/mL (≈ 76.5 µM)

**Q.** `CO/C=C(/C(=O)OC)c1ccccc1Oc1cc(Oc2ccccc2C#N)ncn1` [AZOXYSTROBIN] was tested. Which EC50 (Rhizoctonia solani) did it give?
**A.** 26.2 µg/mL (≈ 64.9 µM)

**Q.** With `OC(Cn1cncn1)(Cn1cncn1)c1ccc(F)cc1F` [FLUCONAZOLE] as the molecule, how does the MIC90 (Candida albicans [7]) read?
**A.** 0.5 µg/mL (≈ 1.63 µM)

**Q.** And the MIC90 (Nakaseomyces glabratus)?
**A.** 2 µg/mL (≈ 6.53 µM)

**Q.** What about the MIC90 (Candida tropicalis) of the same molecule?
**A.** 4 µg/mL (≈ 13.1 µM)

**Q.** And the MIC90 (Pichia kudriavzevii)?
**A.** 16 µg/mL (≈ 52.2 µM)
